Data on 16 compounds can be found in ChEMBL document CHEMBL3351254, “Rational design, synthesis and anti-proliferative evaluation of novel 1,4-benzoxazine-[1,2,3]triazole hybrids” (2015).

Common to all, as to format: functional
Test [1] can be described thus: Antiproliferative activity against human MiaPaCa cells assessed as reduction in net protein increase after 48 hrs by SRB assay. The following applies: MIA PaCa-2, 48 h. A general note: The SRB assay estimates cell density from bound dye.
The test system of a further test is MDA-MB-231. Nature of the test: Antiproliferative activity against human MDA-MB-231 cells assessed as reduction in net protein increase after 48 hrs by SRB assay. The following applies: MDA-MB-231, 48 h.
Test [2] is described as follows: Antiproliferative activity against human IMR32 cells assessed as reduction in net protein increase after 48 hrs by SRB assay. The following applies: IMR-32, 48 h.
The next test deals with HeLa. Nature of the test: Antiproliferative activity against human HeLa cells assessed as reduction in net protein increase after 48 hrs by SRB assay.

What is called GI50 is the concentration that inhibits growth by half.

Regarding `O=C1COc2ccccc2N1CCCn1cc(-c2ccccc2)nn1`, the GI50 in test [1] came out at 94 µM; in the test with MDA-MB-231, 4.9 µM; in test [2] it was 0.37 µM; with HeLa, 9 µM.

As to `Cc1ccc(-c2cn(CCCN3C(=O)COc4ccccc43)nn2)cc1`, the concentration for 50% growth inhibition (GI50) was > 100 µM in test [1], 1.12 µM in the test on MDA-MB-231, 4.4 µM in test [2] and 14.3 µM in the test on HeLa.

In the case of `CCCCCc1ccc(-c2cn(CCCN3C(=O)COc4ccccc43)nn2)cc1`, the GI50 in test [1] was > 100 µM; in the test on MDA-MB-231, 5 µM; in test [2] it was 43.5 µM; with HeLa it was > 100 µM.

For `COc1ccc2cc(-c3cn(CCCN4C(=O)COc5ccccc54)nn3)ccc2c1`, the GI50 in test [1] is > 100 µM; in the test with MDA-MB-231 it was 5 µM; in test [2], 1.3 µM; in the test with HeLa, > 100 µM.

For the compound `O=C1COc2ccccc2N1CCCn1cc(-c2cc3ccccc3c3ccccc23)nn1`, the GI50 in test [1] is 8.4 µM; in the test with MDA-MB-231, > 100 µM; in test [2] it was 0.13 µM; in the test on HeLa, > 100 µM.

Turning to `COc1ccc(-c2cn(CCCN3C(=O)COc4ccccc43)nn2)cc1`, the GI50 in test [1] was determined as 15.7 µM; with MDA-MB-231, 41.5 µM; in test [2], 49.9 µM; in the test on HeLa, 4.9 µM.

For the compound `CCCCCCc1cn(CCCN2C(=O)COc3ccccc32)nn1`, the GI50 was 0.15 µM in test [1], 1.1 µM in the test with MDA-MB-231, 0.71 µM in test [2] and 0.1 µM in the test on HeLa.

On to `O=C1COc2ccccc2N1CCCn1cc(-c2ccccn2)nn1`, for which the GI50 in test [1] turned out to be 5.8 µM; in the test with MDA-MB-231 it was 4.8 µM; in test [2], 2 µM; in the test on HeLa, 10 µM.

As for `O=C1COc2ccccc2N1CCCn1cc(-c2cccnc2)nn1`, the GI50 in test [1] was 8.2 µM; in the test with MDA-MB-231 it was 3 µM; in test [2], 0.86 µM; with HeLa it was > 100 µM.

For `O=C1COc2ccccc2N1CCCn1cc(CO)nn1`, the GI50 in test [1] came out at 1.01 µM; with MDA-MB-231, 5.7 µM; in test [2], 5.5 µM; in the test on HeLa, 7.3 µM.

For the compound `CCCCc1cn(CCCN2C(=O)COc3ccccc32)nn1`, the GI50 came to 2.5 µM in test [1], 3.6 µM with MDA-MB-231, 5.7 µM in test [2] and 1.02 µM in the test on HeLa.

For `CCCc1cn(CCCN2C(=O)COc3ccccc32)nn1`, the GI50 worked out at 2.6 µM in test [1], 1.1 µM with MDA-MB-231, 1.4 µM in test [2] and 23.2 µM in the test with HeLa.

`O=C1COc2ccccc2N1CCCn1cc(CCCCl)nn1`: the GI50 in test [1] was 12.5 µM; in the test on MDA-MB-231, 6.4 µM; in test [2] it was 0.2 µM; with HeLa, 0.1 µM.

As to `O=C1COc2ccccc2N1CCCn1cc(C2(O)CCCCC2)nn1`, the GI50 stood at 2.5 µM in test [1], 1.2 µM in the test with MDA-MB-231, 1.2 µM in test [2] and 2 µM with HeLa.

As to `COc1cccc2c1C(=O)c1c(O)c3c(c(O)c1C2=O)C[C@@](O)(C(=O)CO)C[C@@H]3O[C@H]1C[C@H](N)[C@H](O)[C@H](C)O1` [DOXORUBICIN], the GI50 in test [1] stood at 0.097 µM; with MDA-MB-231, 0.085 µM; in test [2] it was 0.023 µM; in the test with HeLa, 0.073 µM.

For the compound `CC(=O)O[C@H]1C(=O)[C@@]2(C)[C@H]([C@H](OC(=O)c3ccccc3)[C@]3(O)C[C@H](OC(=O)[C@H](O)[C@@H](NC(=O)c4ccccc4)c4ccccc4)C(C)=C1C3(C)C)[C@]1(OC(C)=O)CO[C@@H]1C[C@@H]2O` [PACLITAXEL], the GI50 amounted to 0.056 µM in test [1], 0.091 µM with MDA-MB-231, 0.075 µM in test [2] and 0.025 µM with HeLa.
